# Patent US9993494B2, “Compositions and methods for treating fibrotic disease” (eFFECTOR Therapeutics, Inc., priority 2014, dated 2018)
# Tested on: normal human lung fibroblasts
# Assay: Ribosomal profiling: translational efficiency in TGFβ-treated fibroblasts
# Type: cell-based
# Conditions: TGFβ-treated fibroblasts
# Summary of the method: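 Genome-wide RPF and total RNA libraries (ARTseq, RNA-Seq) were made from lysates of cycloheximide-treated, PBS-washed cells. After trimming and human-genome mapping, per-gene coding-region counts were compared between RPF and RNA for translational efficiency. Genes scoring low in either fraction were dropped.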
smiles,measurement,setting,value
"Cc1ccc(=O)n(-c2ccccc2)c1 [pirfenidone, 5-methyl-1-phenylpyridin-2-one]",renormalizing the translational profile of DNASE1L1,ENSG00000013563,− (− = <0.9)
same,renormalizing the translational profile of KITLG,ENSG00000049130,− (− = <0.9)
same,renormalizing the translational profile of ADAMTS6,ENSG00000049192,− (− = <0.9)
same,renormalizing the translational profile of LETMD1,ENSG00000050426,− (− = <0.9)
same,renormalizing the translational profile of PLEKHA5,ENSG00000052126,− (− = <0.9)
same,renormalizing the translational profile of EIF4B,ENSG00000063046,+ (+ = 0.9 to 1.5)
same,renormalizing the translational profile of RPL18,ENSG00000063177,+ (+ = 0.9 to 1.5)
same,renormalizing the translational profile of HIPK2,ENSG00000064393,− (− = <0.9)
same,renormalizing the translational profile of ASPM,ENSG00000066279,+ (+ = 0.9 to 1.5)
same,renormalizing the translational profile of RASSF1,ENSG00000068028,− (− = <0.9)
same,renormalizing the translational profile of PABPC1,ENSG00000070756,− (− = <0.9)
same,renormalizing the translational profile of RPL31,ENSG00000071082,+ (+ = 0.9 to 1.5)
same,renormalizing the translational profile of PLD1,ENSG00000075651,− (− = <0.9)
same,renormalizing the translational profile of EDN1,ENSG00000078401,− (− = <0.9)
same,renormalizing the translational profile of AURKA,ENSG00000087586,− (− = <0.9)
same,renormalizing the translational profile of EPB41L1,ENSG00000088367,− (− = <0.9)
same,renormalizing the translational profile of RPL6,ENSG00000089009,− (− = <0.9)
same,renormalizing the translational profile of P2RX7,ENSG00000089041,++ (++ = 1.5 to 2.0)
same,renormalizing the translational profile of KDM2B,ENSG00000089094,− (− = <0.9)
same,renormalizing the translational profile of RPLP0,ENSG00000089157,− (− = <0.9)
same,renormalizing the translational profile of IGBP1,ENSG00000089289,− (− = <0.9)
same,renormalizing the translational profile of IRAK3,ENSG00000090376,− (− = <0.9)
same,renormalizing the translational profile of PABPC4,ENSG00000090621,− (− = <0.9)
same,renormalizing the translational profile of FMO2,ENSG00000094963,+++ (+++ = >2.0)
same,renormalizing the translational profile of ACOT7,ENSG00000097021,− (− = <0.9)
same,renormalizing the translational profile of ATP5D,ENSG00000099624,− (− = <0.9)
same,renormalizing the translational profile of LGALS1,ENSG00000100097,+ (+ = 0.9 to 1.5)
same,renormalizing the translational profile of EIF3L,ENSG00000100129,− (− = <0.9)
same,renormalizing the translational profile of RPL3,ENSG00000100316,+ (+ = 0.9 to 1.5)
same,renormalizing the translational profile of CEP192,ENSG00000101639,− (− = <0.9)
same,renormalizing the translational profile of AMMECR1,ENSG00000101935,− (− = <0.9)
same,renormalizing the translational profile of PLP2,ENSG00000102007,− (− = <0.9)
same,renormalizing the translational profile of EIF3E,ENSG00000104408,− (− = <0.9)
same,renormalizing the translational profile of EEF1D,ENSG00000104529,− (− = <0.9)
same,renormalizing the translational profile of C19orf53,ENSG00000104979,− (− = <0.9)
same,renormalizing the translational profile of GLTSCR2,ENSG00000105373,+ (+ = 0.9 to 1.5)
same,renormalizing the translational profile of RAB3D,ENSG00000105514,+ (+ = 0.9 to 1.5)
same,renormalizing the translational profile of RPL18A,ENSG00000105640,+ (+ = 0.9 to 1.5)
same,renormalizing the translational profile of COMP,ENSG00000105664,− (− = <0.9)
same,renormalizing the translational profile of GLCCI1,ENSG00000106415,+ (+ = 0.9 to 1.5)
same,renormalizing the translational profile of CORO2A,ENSG00000106789,− (− = <0.9)
same,renormalizing the translational profile of GDF10,ENSG00000107623,− (− = <0.9)
same,renormalizing the translational profile of RPL28,ENSG00000108107,+ (+ = 0.9 to 1.5)
same,renormalizing the translational profile of RPL19,ENSG00000108298,− (− = <0.9)
same,renormalizing the translational profile of RASD1,ENSG00000108551,− (− = <0.9)
same,renormalizing the translational profile of NAT9,ENSG00000109065,− (− = <0.9)
same,renormalizing the translational profile of RPL34,ENSG00000109475,+ (+ = 0.9 to 1.5)
same,renormalizing the translational profile of CRYAB,ENSG00000109846,− (− = <0.9)
same,renormalizing the translational profile of GAPDH,ENSG00000111640,− (− = <0.9)
same,renormalizing the translational profile of C12orf57,ENSG00000111678,− (− = <0.9)
same,renormalizing the translational profile of MDFI,ENSG00000112559,− (− = <0.9)
same,renormalizing the translational profile of HBEGF,ENSG00000113070,− (− = <0.9)
same,renormalizing the translational profile of RPL24,ENSG00000114391,− (− = <0.9)
same,renormalizing the translational profile of EEF1B2,ENSG00000114942,− (− = <0.9)
same,renormalizing the translational profile of IFIH1,ENSG00000115267,+ (+ = 0.9 to 1.5)
same,renormalizing the translational profile of DPH5,ENSG00000117543,− (− = <0.9)
same,renormalizing the translational profile of PPL,ENSG00000118898,− (− = <0.9)
same,renormalizing the translational profile of PLEKHG1,ENSG00000120278,− (− = <0.9)
same,renormalizing the translational profile of LIAS,ENSG00000121897,− (− = <0.9)
same,renormalizing the translational profile of GPSM2,ENSG00000121957,− (− = <0.9)
same,renormalizing the translational profile of RPL21,ENSG00000122026,+ (+ = 0.9 to 1.5)
same,renormalizing the translational profile of RPL5,ENSG00000122406,+ (+ = 0.9 to 1.5)
same,renormalizing the translational profile of INHBA,ENSG00000122641,− (− = <0.9)
same,renormalizing the translational profile of CIT,ENSG00000122966,+ (+ = 0.9 to 1.5)
same,renormalizing the translational profile of RPL23,ENSG00000125691,+ (+ = 0.9 to 1.5)
same,renormalizing the translational profile of LAMP5,ENSG00000125869,− (− = <0.9)
same,renormalizing the translational profile of NECAB3,ENSG00000125967,− (− = <0.9)
same,renormalizing the translational profile of COX7C,ENSG00000127184,− (− = <0.9)
same,renormalizing the translational profile of LIF,ENSG00000128342,− (− = <0.9)
same,renormalizing the translational profile of MTUS1,ENSG00000129422,++ (++ = 1.5 to 2.0)
same,renormalizing the translational profile of ARHGEF6,ENSG00000129675,− (− = <0.9)
same,renormalizing the translational profile of RPL36,ENSG00000130255,+ (+ = 0.9 to 1.5)
same,renormalizing the translational profile of GDF15,ENSG00000130513,− (− = <0.9)
same,renormalizing the translational profile of ASS1,ENSG00000130707,− (− = <0.9)
same,renormalizing the translational profile of EIF2S3,ENSG00000130741,− (− = <0.9)
same,renormalizing the translational profile of RPL27,ENSG00000131469,− (− = <0.9)
same,renormalizing the translational profile of MATN3,ENSG00000132031,− (− = <0.9)
same,renormalizing the translational profile of PPARG,ENSG00000132170,+++ (+++ = >2.0)
same,renormalizing the translational profile of KDM6B,ENSG00000132510,− (− = <0.9)
same,renormalizing the translational profile of RARRES3,ENSG00000133321,− (− = <0.9)
same,renormalizing the translational profile of BIVM,ENSG00000134897,− (− = <0.9)
same,renormalizing the translational profile of ATP5G2,ENSG00000135390,+ (+ = 0.9 to 1.5)
same,renormalizing the translational profile of KRT7,ENSG00000135480,++ (++ = 1.5 to 2.0)
same,renormalizing the translational profile of HNRNPA1,ENSG00000135486,− (− = <0.9)
same,renormalizing the translational profile of IL6,ENSG00000136244,− (− = <0.9)
same,renormalizing the translational profile of RPL35,ENSG00000136942,− (− = <0.9)
same,renormalizing the translational profile of NOV,ENSG00000136999,− (− = <0.9)
same,renormalizing the translational profile of IER3,ENSG00000137331,− (− = <0.9)
same,renormalizing the translational profile of DDX60,ENSG00000137628,− (− = <0.9)
same,renormalizing the translational profile of RPLP1,ENSG00000137818,+ (+ = 0.9 to 1.5)
same,renormalizing the translational profile of PAQR5,ENSG00000137819,− (− = <0.9)
same,renormalizing the translational profile of AOX1,ENSG00000138356,− (− = <0.9)
same,renormalizing the translational profile of FGF5,ENSG00000138675,+ (+ = 0.9 to 1.5)
same,renormalizing the translational profile of PDE5A,ENSG00000138735,− (− = <0.9)
same,renormalizing the translational profile of GAS2L3,ENSG00000139354,− (− = <0.9)
same,renormalizing the translational profile of DIAPH3,ENSG00000139734,++ (++ = 1.5 to 2.0)
same,renormalizing the translational profile of MYO19,ENSG00000141140,− (− = <0.9)
same,renormalizing the translational profile of RPL13A,ENSG00000142541,+ (+ = 0.9 to 1.5)
same,renormalizing the translational profile of RPL11,ENSG00000142676,− (− = <0.9)
same,renormalizing the translational profile of ACTA1,ENSG00000143632,+ (+ = 0.9 to 1.5)
same,renormalizing the translational profile of PLEKHA6,ENSG00000143850,− (− = <0.9)
same,renormalizing the translational profile of RPL32,ENSG00000144713,− (− = <0.9)
same,renormalizing the translational profile of RPL37,ENSG00000145592,+ (+ = 0.9 to 1.5)
same,renormalizing the translational profile of BTF3,ENSG00000145741,− (− = <0.9)
same,renormalizing the translational profile of HIGD2A,ENSG00000146066,+ (+ = 0.9 to 1.5)
same,renormalizing the translational profile of CREB5,ENSG00000146592,+ (+ = 0.9 to 1.5)
same,renormalizing the translational profile of DENND2A,ENSG00000146966,− (− = <0.9)
same,renormalizing the translational profile of RPL10,ENSG00000147403,+ (+ = 0.9 to 1.5)
same,renormalizing the translational profile of EIF3H,ENSG00000147677,− (− = <0.9)
same,renormalizing the translational profile of RPL7A,ENSG00000148303,+ (+ = 0.9 to 1.5)
same,renormalizing the translational profile of EIF3M,ENSG00000149100,− (− = <0.9)
same,renormalizing the translational profile of FAU,ENSG00000149806,− (− = <0.9)
same,renormalizing the translational profile of CCDC102B,ENSG00000150636,++ (++ = 1.5 to 2.0)
same,renormalizing the translational profile of FRMD4A,ENSG00000151474,− (− = <0.9)
same,renormalizing the translational profile of HOMER1,ENSG00000152413,− (− = <0.9)
same,renormalizing the translational profile of PLEKHH2,ENSG00000152527,− (− = <0.9)
same,renormalizing the translational profile of ANKH,ENSG00000154122,− (− = <0.9)
same,renormalizing the translational profile of ABCA6,ENSG00000154262,− (− = <0.9)
same,renormalizing the translational profile of OBSCN,ENSG00000154358,− (− = <0.9)
same,renormalizing the translational profile of ADAMTS5,ENSG00000154736,− (− = <0.9)
same,renormalizing the translational profile of OXA1L,ENSG00000155463,− (− = <0.9)
same,renormalizing the translational profile of C9orf85,ENSG00000155621,− (− = <0.9)
same,renormalizing the translational profile of RPL30,ENSG00000156482,+ (+ = 0.9 to 1.5)
same,renormalizing the translational profile of EEF1A1,ENSG00000156508,+ (+ = 0.9 to 1.5)
same,renormalizing the translational profile of NRG1,ENSG00000157168,− (− = <0.9)
same,renormalizing the translational profile of ADAMTS4,ENSG00000158859,− (− = <0.9)
same,renormalizing the translational profile of RPL8,ENSG00000161016,− (− = <0.9)
same,renormalizing the translational profile of RPL26,ENSG00000161970,+ (+ = 0.9 to 1.5)
same,renormalizing the translational profile of RPL29,ENSG00000162244,− (− = <0.9)
same,renormalizing the translational profile of CAMK2N1,ENSG00000162545,− (− = <0.9)
same,renormalizing the translational profile of IGFBP7,ENSG00000163453,− (− = <0.9)
same,renormalizing the translational profile of RPL22L1,ENSG00000163584,+ (+ = 0.9 to 1.5)
